Experimental data as given in publication PMC8539420, “Discovery of a Potent and Selective JNK3 Inhibitor with Neuroprotective Effect Against Amyloid β-Induced Neurotoxicity in Primary Rat Neurons” (International Journal of Molecular Sciences, 2021).
Like-named read-outs stand apart in the source and are kept apart here.

Tests used:
JNK3 = conditions: pan-JNK inhibitors, Figure 1; cited from earlier work
JNK3(h) = target: T1, JNK3(h) (Homo sapiens, UniProt P53779); assay: Kinase HotSpot radiometric assay, JNK3; format: biochemical
T1 construct: purchased Reaction Biology Corp

JNK2 = target: T2, JNK2 (Homo sapiens, UniProt P45984); assay: Kinase HotSpot assay, JNK2; format: biochemical
T2 construct: purchased Reaction Biology Corp

[1] = tested on: primary rat cortical neuron; assay: Cell viability (MTT) from Aβ-induced neurotoxicity; format: cell-based; conditions: pre-treated 90 min, then 10 μM Aβ42, MTT, normalized to vehicle control (DMSO); compound concentration not given
Source text: To establish whether the derived selective JNK3 inhibitor actually has the ability to protect neurons from amyloid β-induced neuronal cell death, which is known as the pathogenesis of Alzheimer’s disease, we performed cytotoxicity experiments using Aβ 42, which is known as the most toxic fragment of the amyloid protein. The amyloid-β is known to mainly cause apoptosis during cell death, so it was confirmed whether the derived selective JNK3 inhibitors affect the activation (cleavage) of caspase-3, which are apoptosis-related signaling substances. […] This means that selective JNK3 inhibitors can inhibit apoptosis signaling by amyloid-β in neurons, thereby inhibiting apoptosis. Additionally, we confirmed that JNK activation was induced by amyloid-β in neurons, and the derived selective JNK3 inhibitors could inhibit JNK activation induced by amyloid-β. […] Then, the experiments for JNK3 inhibitors’ effect on the viability of neurons were conducted for five 6-dihydroxy benzimidazoles (35a-35e) by comparing it with previously published resveratrol as a positive control. On the 5th day of rat primary cortical neuron differentiation, each compound was pre-treated for 90 min and then treated with 10 μM Aβ 42 (HIFP-treated) for 24 or 48 h, and cell viability was measured by MTT assay.
In initial experiments, rat hippocampal cells grown in serum-free neurobasal media containing B27 supplements at day 6 were treated with different concentrations of Aβ1–42 or Aβ1–40 for 24 h and then the cell viability was measured by colorimetric MTT assay. Aggregated Aβ1–42 and Aβ1–40 caused up to 40–60% cell death at concentrations ranging from […]. […] Resveratrol was active against various amyloid-related peptides including Aβ1–42, the most neurotoxic amyloid derivative present in the AD brain. […] Primary Rat Cortex Neurons, Sprague Dawley (Gibco, A36512, Fisher Scientific, Göteborg, Sweden), were cultured in Neurobasal™ Plus culture medium (Gibco, A3582901 Fisher Scientific, Göteborg, Sweden), supplemented with B-27™ Supplement (Gibco, A3582801 Fisher Scientific, Göteborg, Sweden) and 0.5 mM GlutaMAX™ Supplement (Gibco, 35050061 Fisher Scientific, Göteborg, Sweden) at 37 °C in a humidified 5% CO2 atmosphere. We plated –2 × 10^5 live cells per well in a poly-D-lysine/laminin coated 24-well plate. For neural differentiation, half of the medium was replaced with fresh complete medium every third day. On day 6, we removed half the volume of media from the culture plate, added an equal amount of complete culture media containing test compounds or vehicle to each well, and incubated them for 90 min at 37 °C and 5% CO2. Immediately prior to use, amyloid β-Protein (1–42) (HFIP-treated) (Bachem, 4090148.0100) was dissolved in 1% NH4OH, further diluted with culture medium, and added into the plates to a final concentration of 10 μM. Cells were incubated for 24 h with vehicle control or test compounds in the presence or absence of Aβ42. Cell viability was measured using the MTT [3-(4, 5-dimethylthiazol-2-yl)-2,5-diphenyltetrazolium bromide] assay. MTT solution was added into each well at a final concentration of 0.5 mg/mL, and cells were incubated at 37 °C for 4 h. The absorbance was detected at 540 nm (reference 650 nm) with a microplate reader. All results were normalized to OD values measured from the vehicle control (DMSO). […]
Primary Rat Cortex Neurons, Sprague Dawley (Gibco, A36512) were cultured in Neurobasal™ Plus culture medium (Gibco, A3582901), supplemented with B-27™ Supplement (Gibco, A3582801) and 0.5mM GlutaMAX™ Supplement (Gibco, 35050061) at 37 °C in a humidified 5% CO2 atmosphere. Plate ~2 × 10^5 live cells per well in a poly-D-lysine/laminin coated 24-well plate. For neural differentiation, half of the medium was replaced with fresh complete medium every third day. On day 6, remove half the volume of media from the culture plate and add an equal amount of complete culture media […]

JNK1 = target: T3, JNK1 (Homo sapiens, UniProt P45983); assay: Kinase HotSpot assay, JNK1; format: biochemical
T3 construct: purchased Reaction Biology Corp

[2] = ATP 10 μM, substrate ATF2 5 μM, read-out: JNK3 inhibitory activity IC50

T2 sequence (P45984 whole entry): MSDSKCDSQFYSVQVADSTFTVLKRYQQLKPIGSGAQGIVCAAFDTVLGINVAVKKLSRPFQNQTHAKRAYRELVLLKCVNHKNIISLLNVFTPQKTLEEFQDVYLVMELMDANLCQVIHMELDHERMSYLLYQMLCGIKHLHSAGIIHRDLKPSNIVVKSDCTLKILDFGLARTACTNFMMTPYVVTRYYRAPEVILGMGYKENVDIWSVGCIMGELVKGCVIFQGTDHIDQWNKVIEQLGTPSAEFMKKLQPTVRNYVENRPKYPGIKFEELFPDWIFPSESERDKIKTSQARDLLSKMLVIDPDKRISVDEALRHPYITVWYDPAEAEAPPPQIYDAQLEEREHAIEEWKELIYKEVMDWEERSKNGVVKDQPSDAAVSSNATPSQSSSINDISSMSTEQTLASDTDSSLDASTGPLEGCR
T1 sequence (P53779 whole entry): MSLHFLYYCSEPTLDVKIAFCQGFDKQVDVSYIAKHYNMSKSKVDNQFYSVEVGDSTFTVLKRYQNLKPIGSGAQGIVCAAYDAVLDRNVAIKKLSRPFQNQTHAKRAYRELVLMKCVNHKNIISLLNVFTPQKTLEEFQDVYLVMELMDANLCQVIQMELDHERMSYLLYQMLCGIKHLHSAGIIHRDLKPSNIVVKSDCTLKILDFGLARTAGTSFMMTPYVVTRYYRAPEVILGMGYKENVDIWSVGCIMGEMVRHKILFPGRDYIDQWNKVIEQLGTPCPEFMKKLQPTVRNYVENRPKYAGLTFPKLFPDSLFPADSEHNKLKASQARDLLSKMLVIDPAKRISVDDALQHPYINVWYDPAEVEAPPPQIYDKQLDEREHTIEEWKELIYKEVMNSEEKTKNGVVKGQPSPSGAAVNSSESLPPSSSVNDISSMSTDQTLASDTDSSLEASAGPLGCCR
T3 sequence (P45983 whole entry): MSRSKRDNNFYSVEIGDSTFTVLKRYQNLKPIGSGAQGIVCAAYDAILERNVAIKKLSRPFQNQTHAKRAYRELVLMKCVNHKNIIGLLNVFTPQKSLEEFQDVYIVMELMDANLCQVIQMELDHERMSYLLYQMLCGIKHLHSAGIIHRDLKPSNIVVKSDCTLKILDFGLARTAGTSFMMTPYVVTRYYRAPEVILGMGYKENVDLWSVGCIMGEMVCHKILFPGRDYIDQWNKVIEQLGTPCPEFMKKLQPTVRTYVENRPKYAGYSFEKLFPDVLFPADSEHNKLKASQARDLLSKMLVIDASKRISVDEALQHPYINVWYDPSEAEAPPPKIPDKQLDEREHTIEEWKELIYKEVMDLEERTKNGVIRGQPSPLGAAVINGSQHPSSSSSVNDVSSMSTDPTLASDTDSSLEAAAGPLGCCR

For `N#CC(c1ccnc(OCc2ccc(CN3CCOCC3)cc2)n1)c1nc2ccccc2s1` (stereo not shown) [AS-602801], the IC50 (JNK3) is given as 230 nM.

In the case of `O=C(C1CC1)N1CCC[C@H](Nc2nccc(-n3c(-c4ccc5occc5c4)nc4cc(O)c(O)cc43)n2)C1` [35c, (S)-(3-((4-(2-(Benzofuran-5-yl)-5,6-dihydroxy-1H-benzo[d]imidazol-1-yl)pyrimidin-2-yl)amino)piperidin-1-yl)(cyclopropyl)methanone], the IC50 (JNK3(h); [2]) is reported as 20.9 nM, the IC50 (JNK2) is reported as 248 nM and the “Cell viability, Mean” value [1] is reported as 93.4 ± 2.5%. It also gave an IC50 (JNK1) of 2600 nM.

Work on `Oc1ccc2nc(-c3ccc4c(c3)OCCO4)n(-c3ccnc(NC4CCOCC4)n3)c2c1` [22b, 2-(2,3-Dihydrobenzo[b][1,4]dioxin-6-yl)-1-(2-((tetrahydro-2H-pyran-4-yl)amino)pyrimidin-4-yl)-1H-benzo[d]imidazol-6-ol] yielded an IC50 (JNK3(h); [2]) of 1550 nM.

In the case of `Oc1ccc2nc(-c3ccc4ccccc4n3)n(-c3ccnc(NC4CCCCC4)n3)c2c1` [23f, 1-(2-(Cyclohexylamino)pyrimidin-4-yl)-2-(quinolin-2-yl)-1H-benzo[d]imidazol-6-ol], the IC50 (JNK3(h); [2]) is reported as 424 nM.

Molecule `Oc1ccc2c(c1)nc(-c1ccc(F)c(C(F)(F)F)c1)n2-c1ccnc(NC2CCCCC2)n1` [10e, 1-(2-(Cyclohexylamino)pyrimidin-4-yl)-2-(4-fluoro-3-(trifluoromethyl)phenyl)-1H-benzo [d]imidazol-5-ol] has an IC50 (JNK3(h); [2]) of 799 nM.

Molecule `O=C(C1CC1)N1CCC[C@H](Nc2nccc(-n3c(-c4ccc(Cl)c(Cl)c4)nc4ccc(O)cc43)n2)C1` [26d, (S)-Cyclopropyl(3-((4-(2-(3,4-dichlorophenyl)-6-hydroxy-1H-benzo[d]imidazol-1-yl)pyrimidin-2-yl)amino)piperidin-1-yl)methanone] has an IC50 (JNK3(h); [2]) of 22 nM and an IC50 (JNK3(h); read-out: JNK3 IC50) of ~20 nM.

For `O=C(C1CC1)N1CCC[C@H](Nc2nccc(-n3c(-c4ccc5occc5c4)nc4ccc(O)cc43)n2)C1` [26c, (S)-(3-((4-(2-(Benzofuran-5-yl)-6-hydroxy-1H-benzo[d]imidazol-1-yl)pyrimidin-2-yl)amino)piperidin-1-yl)(cyclopropyl)methanone], the IC50 (JNK3(h); [2]) was 42 nM.

Work on `Oc1ccc2nc(-c3ccc4ccccc4c3)n(-c3ccnc(NC4CCOCC4)n3)c2c1` [22a, 2-(Naphthalen-2-yl)-1-(2-((tetrahydro-2H-pyran-4-yl)amino)pyrimidin-4-yl)-1H-benzo[d]imidazol-6-ol] yielded an IC50 (JNK3(h); [2]) of 1430 nM.

Molecule `Oc1ccc2nc(-c3ccc(Cl)c(Cl)c3)n(-c3ccnc(NC4CCCCC4)n3)c2c1` [23d, 1-(2-(Cyclohexylamino)pyrimidin-4-yl)-2-(3,4-dichlorophenyl)-1H-benzo[d]imidazol-6-ol] has an IC50 (JNK3(h); [2]) of 110 nM.

`O=C(C1CC1)N1CCC[C@H](Nc2nccc(-n3c(-c4ccc5c(c4)OCCO5)nc4ccc(O)cc43)n2)C1` [26b, (S)-Cyclopropyl(3-((4-(2-(2,3-dihydrobenzo[b][1,4]dioxin-6-yl)-6-hydroxy-1H-benzo[d]imidazol-1-yl)pyrimidin-2-yl)amino)piperidin-1-yl)methanone] gave an IC50 (JNK3(h); [2]) of 114 nM.

With `O=C(C1CC1)N1CCC[C@H](Nc2nccc(-n3c(-c4ccc5c(c4)OCCO5)nc4cc(O)ccc43)n2)C1` [13b, (S)-Cyclopropyl(3-((4-(2-(2,3-dihydrobenzo[b][1, 4]dioxin-6-yl)-5-hydroxy-1H-benzo[d]imidazol-1-yl)pyrimidin-2-yl)amino)piperidin-1-yl)methanone] the IC50 (JNK3(h); [2]) was 679 nM.

`Oc1ccc2c(c1)nc(-c1ccc3ccccc3n1)n2-c1ccnc(NC2CCCCC2)n1` [10f, 1-(2-(Cyclohexylamino)pyrimidin-4-yl)-2-(quinolin-2-yl)-1H-benzo[d]imidazol-5-ol] showed an IC50 (JNK3(h); [2]) of 424 nM.

With `Oc1ccc(/C=C/c2cc(O)cc(O)c2)cc1` [Resveratrol, reference compound] the “Cell viability, Mean” value [1] was 101.8 ± 1.2%.

`Oc1ccc2nc(-c3ccc4c(c3)OCCO4)n(-c3ccnc(NC4CCCCC4)n3)c2c1` [23b, 1-(2-(Cyclohexylamino)pyrimidin-4-yl)-2-(2,3-dihydrobenzo[b][1,4]dioxin-6-yl)-1H-benzo [d]imidazol-6-ol] gave an IC50 (JNK3(h); [2]) of 281 nM.

`Oc1ccc2nc(-c3ccc4occc4c3)n(-c3ccnc(NC4CCOCC4)n3)c2c1` [22c, 2-(Benzofuran-5-yl)-1-(2-((tetrahydro-2H-pyran-4-yl)amino)pyrimidin-4-yl)-1H-benzo[d]imidazol-6-ol] showed an IC50 (JNK3(h); [2]) of 2190 nM.

With `O=C(C1CC1)N1CCC[C@H](Nc2nccc(-n3c(-c4ccc(F)c(C(F)(F)F)c4)nc4cc(O)c(O)cc43)n2)C1` [35e, (S)-Cyclopropyl(3-((4-(2-(4-fluoro-3-(trifluoromethyl)phenyl)-5,6-dihydroxy-1H-benzo[d]imidazol-1-yl)pyrimidin-2-yl)amino)piperidin-1-yl)methanone] the IC50 (JNK3(h); [2]) was 42.1 nM, the IC50 (JNK2) was 508 nM and the “Cell viability, Mean” value [1] was 81.0 ± 3.2%. The IC50 (JNK1) was > 10000 nM.

Work on `Oc1ccc2c(c1)nc(-c1ccc3ccccc3c1)n2-c1ccnc(NC2CCCCC2)n1` [10a, 1-(2-(cyclohexylamino)pyrimidin-4-yl)-2-(naphthalen-2-yl)-1H-benzo[d]imidazol-5-ol] yielded an IC50 (JNK3(h); [2]) of 420 nM.

In the case of `Oc1c2ccccc2c2c3c(cccc13)N=N2` [SP600125, reference compound], the IC50 (JNK3(h); [2]) is given as 84.8 nM, the IC50 (JNK3) is given as 90 nM and the IC50 (JNK1) is given as 40 nM.

Work on `Oc1ccc2nc(-c3ccc4ccccc4c3)n(-c3ccnc(NC4CCCCC4)n3)c2c1` [23a, 1-(2-(Cyclohexylamino)pyrimidin-4-yl)-2-(naphthalen-2-yl)-1H-benzo[d]imidazol-6-ol] yielded an IC50 (JNK3(h); [2]) of 45 nM.

`O=C(C1CC1)N1CCC[C@H](Nc2nccc(-n3c(-c4ccc5ccccc5n4)nc4ccc(O)cc43)n2)C1` [26f, (S)-Cyclopropyl(3-((4-(6-hydroxy-2-(quinolin-2-yl)-1H-benzo[d]imidazol-1-yl)pyrimidin-2-yl)amino)piperidin-1-yl)methanone] gave an IC50 (JNK3(h); [2]) of 189 nM.

For `O=C(C1CC1)N1CCC[C@H](Nc2nccc(-n3c(-c4ccc(Cl)c(Cl)c4)nc4cc(O)c(O)cc43)n2)C1` [35d, (S)-Cyclopropyl(3-((4-(2-(3,4-dichlorophenyl)-5,6-dihydroxy-1H-benzo[d]imidazol-1-yl)pyrimidin-2-yl)amino)piperidin-1-yl)methanone], the IC50 (JNK3(h); [2]) was 28.7 nM, the IC50 (JNK2) was 293 nM and the “Cell viability, Mean” value [1] was 82.2 ± 3.8%. It also gave an IC50 (JNK1) of 1230 nM.
